# System: anti-VCAp18 antibodies of EBV-positive sera
# Assay: Measurement of the binding affinity to the antibody (method of FRIGUET, ELISA inhibition by soluble VCAp18/SEQ ID No. 2)
# Parameters: species or system human
# Settings: increasing concentrations of soluble peptide
# Method: The specificity of the binding of the positive sera to the different mixotopes in solid phase is evaluated by the absorption of the antibodies by the native antigen VCAp18/SEQ ID No. 2 in solution, using the method of B. FRIGUET et al. (J. Immunol. Methods, 1985, 77, 305-319).
# This method is based on the measurement of the free antibody concentration by an indirect ELISA method when the antigen VCAp18/SEQ ID No. 2 and the antibodies are in equilibrium in solution.
# The antigen VCAp18/SEQ ID No. 2, at different concentrations (10^−10 M to 2×10^−6 M), is first incubated in solution (PBS-T buffer+2% BSA) with an EBV-positive serum, at a constant concentration (1/50) until the equilibrium state is reached. […]
# After washing with PBS-T buffer, the bound immunoglobulins are detected by addition of peroxidase-coupled goat antibodies anti-human IgG-A-Ms.
# This method gives the displacement curves for the A/Ao bond relative to log(ao). A precise estimation of the mean affinity of the serum containing the anti-VCAp18 antibodies is given by the equation Ao/(Ao−A)=1/ν=1+Kd/ao, in which ao is the total soluble antigen concentration, A and Ao are the absorbance values at 492 nm with or without blocking antigen, respectively, and ν is the bound antibody fraction, if the different conditions set out in FRIGUET et al. are satisfied.
sequence,measurement,value
CAVDTGSGGGGQPHDTAPRGARKKQ [VCAp18/SEQ ID No. 2],inhibition of the binding of the human sera to the 3 mixotopes in solid phase,specifically and strongly inhibited
